# Data reported in patent publication US6919306B2, “Method of skin care” (Yaizu Suisankagaku Industry Co. Ltd., priority 1999, dated 2005).
# Marks after values point to notes of the source that are not given here.
# Test system: skin surface
# Test: Microscopic three-dimensional skin surface analysis (VISIOSCAN)
# Format: in vivo, human
# Parameters: key to SEsc (Ideal value: Lowest value), Below left eye / SEsc (Ideal value: Lowest value), Left upper arm: SEsc = I/(Nx×Ny)×100; lower = more moist, less scaling; key to SEsm (Ideal value: Lowest value), Left upper arm / SEsm (Ideal value: Lowest value), Below left eye: SEsm = (Co−Cu)×(Fmx−Fmy)×K; lower = smoother skin; SWw (Ideal value: Lowest value), Below left eye / SWw (Ideal value: Lowest value), Left upper arm: scale not given here
# Details: for Kurtosis (Ideal value: 0), Below left eye / Kurtosis (Ideal value: 0), Left upper arm / Kurtosis (Ideal value: 0), Poll / SEr (Ideal value: Lowest value), Below left eye / SEr (Ideal value: Lowest value), Left upper arm / SEr (Ideal value: Lowest value), Poll / SEsc (Ideal value: Lowest value), Below left eye / SEsc (Ideal value: Lowest value), Left upper arm / SEsc (Ideal value: Lowest value), Poll / SEsm (Ideal value: Lowest value), Below left eye / SEsm (Ideal value: Lowest value), Left upper arm / SEsm (Ideal value: Lowest value), Poll / SWw (Ideal value: Lowest value), Below left eye / SWw (Ideal value: Lowest value), Left upper arm / SWw (Ideal value: Lowest value), Poll: NAG 1,000 mg/day oral; for SEr (Ideal value: Lowest value), Below left eye / SEr (Ideal value: Lowest value), Left upper arm / SEr (Ideal value: Lowest value), Poll: skin roughness; for SEsc (Ideal value: Lowest value), Below left eye / SEsc (Ideal value: Lowest value), Left upper arm / SEsc (Ideal value: Lowest value), Poll: skin scaliness; for SEsm (Ideal value: Lowest value), Below left eye / SEsm (Ideal value: Lowest value), Left upper arm / SEsm (Ideal value: Lowest value), Poll: skin smoothness; for SWw (Ideal value: Lowest value), Below left eye / SWw (Ideal value: Lowest value), Left upper arm / SWw (Ideal value: Lowest value), Poll: skin wrinkles
# Description: To 22 females usually having a tendency of xeroderma and rough skin (average age: 25.5±10.7), a double blind long-term ingestion study was carried out in the following manners provided that a […] were given to a control group.
# NAG-containing tablets-administered group (NAG group, n=11): Tablets prepared similarly as in Example 1 as described below (NAG amount: 200 mg/tablet), were ingested at a rate of 5 tablets/day (NAG 1,000 mg/day, as a daily dose).
# The ingestion period was 8 weeks in each group. The inspection was in principle carried out just before the start of ingestion, 4 weeks after the start of ingestion, and just before the completion of ingestion (8 weeks after the start of ingestion).
# This analysis was conducted by using a digital analyzer of the skin surface (VISIONSCAN: manufactured by Courage+Khazaka Electronic Gmbh). In use of this apparatus, the skin surface was irradiated with special ultraviolet ray source, and the image is taken by a high performance CCD camera and digitalized for evaluation. The following factors were sampled as parameters.
# This value is calculated from the average of the width and depth of wrinkles by the following formula (i), and one of indices which show the smoothness of skin. The smaller this value is, the smoother the skin surface is. SEsm=(Co−Cu)×(Fmx−Fmy)×K (i) • Fmx: average width of furrows for the row analysis. • Fmy: average width of furrows for the column analysis. • Co: right frontier of the histogram whose calculation is based on a set-up values. • Cu: left frontier of the histogram whose calculation is based on a set-up values. • K: factor
# This value is obtained by calculating the ratio of points darker than the set-up points in the whole image and further calculating by the following formula (ii), and one of indices which show the roughness of skin. The higher the value is, the rougher the skin is. SEr=I/(Nx×Ny)×100 (ii) • I: counter whose start value is 0 and which is incremented each time the gray value of the current point is smaller than the threshold issued from the set-up programs. • Nx: amount of point per row. • Ny: amount of point per column.
# Epidermolysis parts are counted to be brighter than the set-up values in the image. The SEsc value is obtained by calculating the ratio of these parts relative to the entire part by the following formula (iii), and is one of indices which show the dryness of scale (corneum). The lower the value is, the more moist and the less epidermolysis (scale). SEsc=I/(Nx×Ny)×100 (iii) • I: counter whose start value is 0 and which is incremented each time the gray value of the current point is bigger than the threshold issued from the set-up programs. • Nx: amount of point per row. • Ny: amount of point per column.
# The higher the value is, the more the number of wrinkle is and the wider the width of wrinkles is. SEw=Fmx×Fmy/(Fax×Fay)×Fay/Fax×K (iv) • Fax: amount of furrows for the row analysis. • Fmx: average width of furrows for the row analysis. • Fay: amount of furrows for the column analysis. • Fmy: average width of furrows for the column analysis. • K: factor
# The closer to 0 the value is, the smoother in curve the hue point is and the closer to ideal skin.
compound,measurement,setting,value
"CC(=O)N[C@H]1C(O)O[C@H](CO)[C@@H](O)[C@@H]1O (stereo partly shown) [NAG, N-acetylglucosamine]","Kurtosis (Ideal value: 0), Below left eye",after 4 weeks,0.34
same,"Kurtosis (Ideal value: 0), Left upper arm",after 4 weeks,0.40
same,"Kurtosis (Ideal value: 0), Poll",after 4 weeks,0.39
same,"Kurtosis (Ideal value: 0), Below left eye",after 8 weeks,0.30
same,"Kurtosis (Ideal value: 0), Left upper arm",after 8 weeks,0.50
same,"Kurtosis (Ideal value: 0), Poll",after 8 weeks,0.39
same,"Kurtosis (Ideal value: 0), Below left eye",before ingestion,0.58
same,"Kurtosis (Ideal value: 0), Left upper arm",before ingestion,0.97
same,"Kurtosis (Ideal value: 0), Poll",before ingestion,0.79
same,"SEsm value and SEsc value at the poll, change","NAG group, 1,000 mg/day oral, 8 weeks",significant decrease
same,"SEr (Ideal value: Lowest value), Below left eye",after 4 weeks,0.26
same,"SEr (Ideal value: Lowest value), Left upper arm",after 4 weeks,0.22
same,"SEr (Ideal value: Lowest value), Poll",after 4 weeks,0.32
same,"SEr (Ideal value: Lowest value), Below left eye",after 8 weeks,0.21
same,"SEr (Ideal value: Lowest value), Left upper arm",after 8 weeks,0.28
same,"SEr (Ideal value: Lowest value), Poll",after 8 weeks,0.40
same,"SEr (Ideal value: Lowest value), Below left eye",before ingestion,0.25
same,"SEr (Ideal value: Lowest value), Left upper arm",before ingestion,0.30
same,"SEr (Ideal value: Lowest value), Poll",before ingestion,0.51
same,"SEsc (Ideal value: Lowest value), Below left eye",after 4 weeks,137.0
same,"SEsc (Ideal value: Lowest value), Left upper arm",after 4 weeks,195.8
same,"SEsc (Ideal value: Lowest value), Poll",after 4 weeks,201.6
same,"SEsc (Ideal value: Lowest value), Below left eye",after 8 weeks,133.0
same,"SEsc (Ideal value: Lowest value), Left upper arm",after 8 weeks,202.4
same,"SEsc (Ideal value: Lowest value), Poll","after 8 weeks, p < 0.05",169.3*
same,"SEsc (Ideal value: Lowest value), Below left eye",before ingestion,238.4
same,"SEsc (Ideal value: Lowest value), Left upper arm",before ingestion,342.9
same,"SEsc (Ideal value: Lowest value), Poll",before ingestion,352.4
same,"SEsm (Ideal value: Lowest value), Below left eye",after 4 weeks,337.6
same,"SEsm (Ideal value: Lowest value), Left upper arm",after 4 weeks,324.7
same,"SEsm (Ideal value: Lowest value), Poll","after 4 weeks, p < 0.05",338.9*
same,"SEsm (Ideal value: Lowest value), Below left eye",after 8 weeks,309.4
same,"SEsm (Ideal value: Lowest value), Left upper arm",after 8 weeks,379.9
same,"SEsm (Ideal value: Lowest value), Poll","after 8 weeks, p < 0.05",345.2*
same,"SEsm (Ideal value: Lowest value), Below left eye",before ingestion,378.1
same,"SEsm (Ideal value: Lowest value), Left upper arm",before ingestion,384.7
same,"SEsm (Ideal value: Lowest value), Poll",before ingestion,443.8
same,"SWw (Ideal value: Lowest value), Below left eye",after 4 weeks,29.0
same,"SWw (Ideal value: Lowest value), Left upper arm",after 4 weeks,26.4
same,"SWw (Ideal value: Lowest value), Poll",after 4 weeks,23.4
same,"SWw (Ideal value: Lowest value), Below left eye",after 8 weeks,27.8
same,"SWw (Ideal value: Lowest value), Left upper arm",after 8 weeks,31.9
same,"SWw (Ideal value: Lowest value), Poll",after 8 weeks,29.5
same,"SWw (Ideal value: Lowest value), Below left eye",before ingestion,33.2
same,"SWw (Ideal value: Lowest value), Left upper arm",before ingestion,30.2
same,"SWw (Ideal value: Lowest value), Poll",before ingestion,27.3
